PubChem BioAssay AID256 (DTP/NCI, 2004)
Several values for one entry are separate records, joined by “and”; a condition that tells them apart may be missing. Identical values can stand only once. Inconclusive results and toxic doses are left out.

Test system: CD2F1 mice, L1210 leukemia ip, survival T/C
Test: NCI In Vivo Anticancer Drug Screen. Data for tumor model L1210 Leukemia (intraperitoneal) in CD2F1 (CDF1) mice
Conditions: higher = longer survival
Summary of the method: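 Tumor-bearing mice (transplanted tumor) were split into treated and vehicle control groups, and the measured endpoint of each treated group was divided by that of its vehicle controls.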

[1] = endpoint: mean survival time, dose: 100.0 mg/kg/injection, schedule: Q04DX003 (ip), vehicle: saline with Tween-80
[2] = endpoint: mean survival time, dose: 200.0 mg/kg/injection, schedule: Q04DX003 (ip), vehicle: saline with Tween-80
[3] = endpoint: mean survival time, dose: 400.0 mg/kg/injection, schedule: Q04DX003 (ip), vehicle: saline with Tween-80
[4] = endpoint: mean survival time, dose: 100.0 mg/kg/injection, schedule: Q01DX009 (ip), vehicle: saline with Tween-80
[5] = endpoint: mean survival time, dose: 200.0 mg/kg/injection, schedule: Q01DX009 (ip), vehicle: saline with Tween-80
[6] = endpoint: mean survival time, dose: 400.0 mg/kg/injection, schedule: Q01DX009 (ip), vehicle: saline with Tween-80
[7] = endpoint: mean survival time, dose: 100.0 mg/kg/injection, schedule: Q01DX001 (ip), vehicle: saline with Tween-80
[8] = endpoint: mean survival time, dose: 200.0 mg/kg/injection, schedule: Q01DX001 (ip), vehicle: saline with Tween-80
[9] = endpoint: mean survival time, dose: 400.0 mg/kg/injection, schedule: Q01DX001 (ip), vehicle: saline with Tween-80
[10] = endpoint: mean survival time, dose: 100.0 mg/kg/injection, schedule: Q01DX009 (ip), vehicle: saline
[11] = endpoint: mean survival time, dose: 200.0 mg/kg/injection, schedule: Q01DX009 (ip), vehicle: saline
[12] = endpoint: mean survival time, dose: 400.0 mg/kg/injection, schedule: Q01DX009 (ip), vehicle: saline
[13] = endpoint: mean survival time, dose: 25.0 mg/kg/injection, schedule: Q01DX009 (ip), vehicle: saline with Tween-80
[14] = endpoint: mean survival time, dose: 50.0 mg/kg/injection, schedule: Q01DX009 (ip), vehicle: saline with Tween-80
[15] = endpoint: mean survival time, dose: 6.25 mg/kg/injection, schedule: Q01DX009 (ip), vehicle: saline with Tween-80
[16] = endpoint: mean survival time, dose: 12.5 mg/kg/injection, schedule: Q01DX009 (ip), vehicle: saline with Tween-80

## COC(=O)CC1CCS(=O)(=O)C1 (stereo not given)
[1]
  T/C: 98 % of control
[2]
  T/C: 93 % of control
[3]
  T/C: 92 % of control

## O=C(CC(=O)c1ccccc1O)c1ccccc1
[4]
  T/C: 91 % of control
[5]
  T/C: 88 % of control
[6]
  T/C: 94 % of control

## COc1ccc(N=c2ssc(SC)c2-c2ccccc2)cc1
[7]
  T/C: 102 % of control
[4]
  T/C: 103 % of control
[1]
  T/C: 101 % of control
[8]
  T/C: 100 % of control
[5]
  T/C: 102 % of control
[2]
  T/C: 102 % of control
[9]
  T/C: 102 % of control
[6]
  T/C: 103 % of control
[3]
  T/C: 98 % of control

## CCCCCCCCC(=O)N1CCCCC1
endpoint: mean survival time, dose: 100.0 mg/kg/injection, schedule: Q04DX003 (ip), vehicle: saline
  T/C: 101 % of control
endpoint: mean survival time, dose: 200.0 mg/kg/injection, schedule: Q04DX003 (ip), vehicle: saline
  T/C: 102 % of control
endpoint: mean survival time, dose: 400.0 mg/kg/injection, schedule: Q04DX003 (ip), vehicle: saline
  T/C: 96 % of control

## CCOC(=O)NCCCNC(=O)OCC
[10]
  T/C: 104 % of control
[11]
  T/C: 95 % of control
[12]
  T/C: 93 % of control

## Cc1ccc(S(=O)(=O)Nc2ccccc2-c2nc3cc(Cl)ccc3c(=O)o2)cc1
[1]
  T/C: 87 % of control
[2]
  T/C: 98 % of control
[3]
  T/C: 98 % of control

## COc1ccc2c(O)c(-c3ccc(OC)c(OC)c3)c(=O)oc2c1
[13]
  T/C: 96 % of control
[14]
  T/C: 103 % of control
[4]
  T/C: 106 % of control

## O=C1C=C(c2ccccc2)CC1
[14]
  T/C: 104 % of control
[4]
  T/C: 93 % of control
[1]
  T/C: 101 % of control
[2]
  T/C: 100 % of control

## COc1ccc(OC)c(/C=C/c2cc3ccccc3c[n+]2C)c1
endpoint: mean survival time, dose: 3.13 mg/kg/injection, schedule: Q01DX009 (ip), vehicle: saline with Tween-80
  T/C: 94 % of control
[15]
  T/C: 102 % of control
[16]
  T/C: 105 % of control

## CSC(=S)N(C)/N=C/c1ccccc1O
[4]
  T/C: 97 % of control
[1]
  T/C: 102 % of control
[5]
  T/C: 93 % of control
[2]
  T/C: 92 % of control
[6]
  T/C: 92 % of control
[3]
  T/C: 100 % of control

## CC(CNCCN)C[Si](C)(C)C (stereo not given)
[15]
  T/C: 100 % of control
[16]
  T/C: 98 % of control
[13]
  T/C: 104 % of control

## CCCSc1ncnc2nc[nH]c12
endpoint: median survival time, dose: 31.25 mg/kg/injection, schedule: Q01DX009 (ip), vehicle: saline
  T/C: 100 % of control
endpoint: median survival time, dose: 62.5 mg/kg/injection, schedule: Q01DX009 (ip), vehicle: saline
  T/C: 114 % of control and 111 % of control
endpoint: median survival time, dose: 125.0 mg/kg/injection, schedule: Q01DX009 (ip), vehicle: saline
  T/C: 121 % of control and 111 % of control
endpoint: median survival time, dose: 250.0 mg/kg/injection, schedule: Q01DX009 (ip), vehicle: saline
  T/C: 122 % of control

## C(/C=C\c1ccccc1)=Nc1ccccc1
endpoint: mean survival time, dose: 25.0 mg/kg/injection, schedule: Q01DX009 (ip), vehicle: Klucel (hydroxypropylcellulose) (HPC)
  T/C: 93 % of control
endpoint: mean survival time, dose: 50.0 mg/kg/injection, schedule: Q01DX009 (ip), vehicle: Klucel (hydroxypropylcellulose) (HPC)
  T/C: 93 % of control
endpoint: mean survival time, dose: 100.0 mg/kg/injection, schedule: Q01DX001 (ip), vehicle: saline sonified
  T/C: 93 % of control
endpoint: mean survival time, dose: 100.0 mg/kg/injection, schedule: Q01DX009 (ip), vehicle: Klucel (hydroxypropylcellulose) (HPC)
  T/C: 95 % of control
[4]
  T/C: 101 % of control
[5]
  T/C: 97 % of control
[6]
  T/C: 92 % of control

## CCCC(Br)C(=O)OCC (stereo not given)
[14]
  T/C: 96 % of control
[4]
  T/C: 93 % of control
[5]
  T/C: 93 % of control

## CC(=O)OCC1C(OC(C)=O)CC2CCC1N2C#N (stereo not given)
endpoint: mean survival time, dose: 50.0 mg/kg/injection, schedule: Q04DX002 (ip), vehicle: Klucel (hydroxypropylcellulose) (HPC)
  T/C: 107 % of control
endpoint: mean survival time, dose: 100.0 mg/kg/injection, schedule: Q04DX002 (ip), vehicle: Klucel (hydroxypropylcellulose) (HPC)
  T/C: 96 % of control
endpoint: mean survival time, dose: 200.0 mg/kg/injection, schedule: Q04DX002 (ip), vehicle: Klucel (hydroxypropylcellulose) (HPC)
  T/C: 88 % of control and 89 % of control

## CCOC(=O)/C(C(C)=N)=C(\C)O
[7]
  T/C: 100 % of control
[4]
  T/C: 101 % of control
[8]
  T/C: 98 % of control
[5]
  T/C: 104 % of control
[9]
  T/C: 105 % of control

## O=C1CCCCCCCC1O (stereo not given)
[4]
  T/C: 95 % of control
[5]
  T/C: 94 % of control
[6]
  T/C: 105 % of control

## Cc1cc2c(cc1C)[n+]([O-])c1c(=O)[nH]c(=O)[nH]c1[n+]2[O-]
endpoint: mean survival time, dose: 25.0 mg/kg/injection, schedule: Q04DX002 (ip), vehicle: saline with Tween-80
  T/C: 98 % of control
endpoint: mean survival time, dose: 50.0 mg/kg/injection, schedule: Q04DX002 (ip), vehicle: saline with Tween-80
  T/C: 102 % of control

## C=C(C)C(=NC(C)(C)C)Nc1ccccc1
endpoint: median survival time, dose: 6.25 mg/kg/injection, schedule: Q01DX009 (ip), vehicle: saline with Tween-80
  T/C: 105 % of control
endpoint: median survival time, dose: 12.5 mg/kg/injection, schedule: Q01DX009 (ip), vehicle: saline with Tween-80
  T/C: 110 % of control
endpoint: median survival time, dose: 25.0 mg/kg/injection, schedule: Q01DX009 (ip), vehicle: saline with Tween-80
  T/C: 108 % of control
endpoint: median survival time, dose: 50.0 mg/kg/injection, schedule: Q01DX009 (ip), vehicle: saline with Tween-80
  T/C: 108 % of control
endpoint: median survival time, dose: 100.0 mg/kg/injection, schedule: Q01DX009 (ip), vehicle: saline with Tween-80
  T/C: 112 % of control
endpoint: median survival time, dose: 200.0 mg/kg/injection, schedule: Q01DX009 (ip), vehicle: saline with Tween-80
  T/C: 121 % of control

## OCCc1ccncc1
endpoint: mean survival time, dose: 100.0 mg/kg/injection, schedule: Q01DX001 (ip), vehicle: saline
  T/C: 103 % of control
endpoint: mean survival time, dose: 200.0 mg/kg/injection, schedule: Q01DX001 (ip), vehicle: saline
  T/C: 105 % of control

## Nc1nc(Cl)nc2c1ncn2C1CC(O)C(CO)O1 (stereo not given)
endpoint: median survival time, dose: 1.56 mg/kg/injection, schedule: Q01DX009 (ip), vehicle: Klucel (hydroxypropylcellulose) (HPC)
  T/C: 124 % of control
endpoint: median survival time, dose: 7.5 mg/kg/injection, schedule: Q03HX009 (ip), vehicle: saline
  T/C: 172 % of control
endpoint: median survival time, dose: 7.5 mg/kg/injection, schedule: Q03HX009 (ip), vehicle: suspension in saline
  T/C: 107 % of control
endpoint: median survival time, dose: 10.0 mg/kg/injection, schedule: Q03HX024 (ip), vehicle: saline
  T/C: 735 % of control
endpoint: median survival time, dose: 12.5 mg/kg/injection, schedule: Q01DX009 (ip), vehicle: Klucel (hydroxypropylcellulose) (HPC)
  T/C: 180 % of control
endpoint: median survival time, dose: 15.0 mg/kg/injection, schedule: Q03HX009 (ip), vehicle: saline
  T/C: 168 % of control
endpoint: median survival time, dose: 15.0 mg/kg/injection, schedule: Q03HX009 (ip), vehicle: suspension in saline
  T/C: 100 % of control
endpoint: median survival time, dose: 15.0 mg/kg/injection, schedule: Q03HX024 (ip), vehicle: saline
  T/C: 345 % of control
endpoint: median survival time, dose: 20.0 mg/kg/injection, schedule: Q03HX024 (ip), vehicle: saline
  T/C: 735 % of control
endpoint: median survival time, dose: 25.0 mg/kg/injection, schedule: Q01DX009 (ip), vehicle: Klucel (hydroxypropylcellulose) (HPC)
  T/C: 192 % of control
endpoint: median survival time, dose: 30.0 mg/kg/injection, schedule: Q03HX009 (ip), vehicle: saline
  T/C: 208 % of control
endpoint: median survival time, dose: 30.0 mg/kg/injection, schedule: Q03HX009 (ip), vehicle: suspension in saline
  T/C: 109 % of control
endpoint: median survival time, dose: 60.0 mg/kg/injection, schedule: Q03HX009 (ip), vehicle: saline
  T/C: 204 % of control
endpoint: median survival time, dose: 60.0 mg/kg/injection, schedule: Q03HX009 (ip), vehicle: suspension in saline
  T/C: 109 % of control
endpoint: median survival time, dose: 120.0 mg/kg/injection, schedule: Q03HX009 (ip), vehicle: suspension in saline
  T/C: 113 % of control

## C/C(=N\NC(=S)N1CC2CCC(CC2)C1)c1cccc(C)n1
endpoint: median survival time, dose: 3.12 mg/kg/injection, schedule: Q01DX005 (ip), vehicle: saline with Tween-80
  T/C: 103 % of control
endpoint: median survival time, dose: 6.25 mg/kg/injection, schedule: Q01DX005 (ip), vehicle: saline with Tween-80
  T/C: 108 % of control
endpoint: median survival time, dose: 12.5 mg/kg/injection, schedule: Q01DX005 (ip), vehicle: saline with Tween-80
  T/C: 119 % of control
endpoint: median survival time, dose: 25.0 mg/kg/injection, schedule: Q01DX005 (ip), vehicle: saline with Tween-80
  T/C: 102 % of control and 108 % of control

## ClC1CCC[N-]C1.ClC1CCC[N-]C1.O=C(O)CC(=O)O.[Pt+2] (stereo not given)
[16]
  T/C: 102 % of control
[13]
  T/C: 100 % of control
[14]
  T/C: 104 % of control
[4]
  T/C: 104 % of control
[5]
  T/C: 94 % of control

## O=[N+]([O-])c1ccc(N/N=C2/CCSc3ccccc32)cc1
[10]
  T/C: 102 % of control
[11]
  T/C: 101 % of control
[12]
  T/C: 95 % of control
